“Also recorded” adds a separate entry of the source.

The values below come from US9126999B2, “Tetrahydropyrazolopyrimidine compounds” (EISAI R&D MANAGEMENT CO., LTD., priority 2012, dated 2015).

The experiment has as its system NZBWF1/J mice. The experiment can be described thus: NZBxNZW strain lupus disease model. The class given is in vivo, mouse. The following applies: NZB/W model; for anti-dsDNA titers: QD PO; for proteinuria: UACR. On the procedure:
Figure Legend: Female NZBWF1/J mice were received at 6 weeks of age, baseline bleeds were performed, and mice were monitored for disease progression by following anti-dsDNA titers. At 20 weeks of age, mice were randomized into groups with equivalent median anti-dsDNA titers and treated at 23 weeks of age with Vehicle (Veh; 0.5% methyl-cellulose) alone or 33, 100, or 300 mg/kg ER-892887 once-a-day orally (QD PO). All mice were sacrificed at 45 weeks of age (22 weeks total treatment) and blood plasma anti-dsDNA titers were determined by ELISA. (A) Impact of ER-892887 treatment over time on anti-dsDNA titers. (B) Bar graph of +22 weeks treatment data for ER-892887 derived from data shown in (A). (C) Just prior to termination at 45 weeks of age (following 22 weeks of treatment), urine was collected from individual mice, and the Urinary Albumin Creatinine Ratio (UACR, proteinuria) was determined for each animal as an indirect measure of kidney function. (D) Summary of mortality observed in this study. (E) At the time of sacrifice, kidneys were collected from individual mice, fixed in 10% formalin for 24 hours, embedded in paraffin, and H&E stained sections were generated for histopathology assessment in a blinded fashion. Statistical significance was determined by Mann-Whitney test for (C).
Figure Legend. Female NZBWF1/J mice were received at 8 weeks of age, baseline bleeds were performed, and mice were monitored for disease progression by following anti-dsDNA titers. At 24 weeks of age, mice were randomized into groups with equivalent median anti-dsDNA titers and treated at 25 weeks of age QD PO with Vehicle (Veh; 0.5% methyl-cellulose) alone or 33, 100, or 300 mg/kg ER-892887. Anti-dsDNA titers were determined by ELISA on blood plasma samples at the time points indicated. (A) Impact of compound treatment on median anti-dsDNA titers over time up to +17 weeks of treatment. (B) Impact of compound treatment on median anti-dsDNA at the +13 weeks of treatment time point only from data shown in (A). (C) After 13 weeks (top graph) or 17 weeks (bottom graph) of compound treatment, urine was collected from individual mice, and the Urinary Albumin Creatinine Ratio (UACR, proteinuria) was determined for each animal as an indirect measure of kidney function. Mice indicated within the circle with high UACR were those animals that died between the +13 wks and +17 wks of treatment (statistical significance was determined by Mann-Whitney test). (D) Blood urea nitrogen (BUN) measured in the plasma from select groups after 13 weeks of treatment. (E) Mortality curves for Vehicle versus compound treated mice up to 17 weeks of treatment. […] (F) Summary of mortality observed in this study.
Figure Legend: Female NZBWF1/J mice were received at 6 weeks of age, baseline bleeds were performed, and mice were monitored for disease progression by following anti-dsDNA titers. At 24 weeks of age, mice were randomized into groups with equivalent median anti-dsDNA titers and treated with Vehicle (Veh; 0.5% methyl-cellulose) alone or 300 mg/kg ER-885454 once-a-day orally (QD PO). All mice were sacrificed at 47 weeks of age (23 weeks total treatment) and blood plasma anti-dsDNA titers were determined by ELISA (A). (B) Just prior to termination at 47 weeks of age, urine was collected from individual mice, and Urinary Albumin Creatinine Ratio (UACR, proteinuria) was determined for each animal as an indirect measure of kidney function. (C) At the time of sacrifice, kidneys were collected from individual mice, fixed in 10% formalin for 24 hours, embedded in paraffin, and H&E stained sections were generated for histopathology assessment in a blinded fashion. Statistical significance was determined by Mann-Whitney test for (A) above.
Figure Legend: Female NZBWF1/J mice were received at 4 weeks of age, baseline bleeds were performed at 10 and 26 weeks, and mice were monitored for disease progression by following anti-dsDNA titers and proteinuria. […]

As for `COc1ccc([C@@H]2C[C@H](C(F)(F)F)n3nc(-c4ccncc4)cc3N2)cc1OC` [ER-885454], the “histological signs of glomerulonephritis” value was “reduced”, the anti-dsDNA titers result is listed as “reduced” and the proteinuria result is listed as “reduced”.
Regarding `COc1ccc([C@@H]2C[C@H](C(F)(F)F)n3nc(-c4ccc(C(=O)N5CCNCC5)cc4)cc3N2)cc1OC` [ER-892887, (4-((5S,7R)-5-(3,4-dimethoxyphenyl)-7-(trifluoromethyl)-4,5,6,7-tetrahydropyrazolo[1,5-a]pyrimidin-2-yl)phenyl)(piperazin-1-yl)methanone], the “delay of development of proteinuria compared with two drugs commonly used in the treatment of human lupus” value is reported as “more effectively”; the “efficacy in combination with hydroxychloroquine and prednisolone” value was “efficacious”; the “histological signs of glomerulonephritis” value is “reduced”; the anti-dsDNA titers result was “reduced”. Besides, the proteinuria result is “reduced proteinuria”. Also, for the setting “vs. Vehicle, 33-100 mg/kg QD PO, long-term dosing”, the survival result was “statistically significant survival benefit; also recorded: afforded survival benefit; also recorded: significantly enhanced survival”.
